Data taken from article PMC3944389, “Differential Neuroprotective Effects of 5′-Deoxy-5′-Methylthioadenosine” (PLoS ONE, 2014).

How the values were obtained:
[1] = tested on: Sprague-Dawley rats, pilocarpine-induced status epilepticus; assay: Pilocarpine-induced status epilepticus (SE) model; format: in vivo, rat
Experimental: Young adult (175–200 g) male Sprague-Dawley rats from Charles River (Wilmington, MA, US) were divided into four MTA treatment groups, with 9–11 rats per group. In group A, rats were subjected to pilocarpine-induced status epilepticus (SE) as described previously. Following 90 min of continuous seizure activity, SE was stopped by administering a single dose of diazepam (10 mg/kg). The rats were then injected daily for 3 days with either the vehicle alone (2% DMSO in H2O), injecting a volume of body weight x 3.3 (a similar volume as for the MTA treated groups), or MTA (30 mg/kg). Rats were euthanized on day 4 after SE under anesthesia by transcardiac perfusion with 4% paraformaldehyde (PFA) in phosphate-buffered saline. The brains were removed, postfixed in 4% PFA, cryoprotected in 30% sucrose, frozen, and sectioned for histology. In group B, the rats received the same treatment as those in group A (vehicle or MTA 30 mg/kg) except that the rats were perfused on day 30 after SE and a 0,37% sulphide fixative was used for subsequent Timm staining. In group C, the rats were only treated with MTA (30 mg/kg) or the vehicle for 2 days and on the third day, the rats were again subjected to pilocarpine-induced SE. The animals were then treated once daily with MTA (30 mg/kg) or vehicle for a further 3 days, and they were anesthetized and euthanized 4 days after SE. […]
Mouse and rat coronal sections were mounted on glass slides in a 0.2% solution of gelatin in 0.05 M Trizma base [pH 7.6] […] To evaluate sprouting of the zinc-containing mossy fibers in the dentate gyrus inner molecular layer, Timm-stained sections were analyzed by an examiner blinded to experimental condition. […] Twelve samples of pixel density/section were measured in the inner molecular layer using NIH ImageJ, 5 from the lower blade, 5 from the upper blade and 2 from the apex. The average background level (mean of 12 samples/section) was subtracted and a mean pixel density calculated for each animal (n = 4–5/group). […]

[2] = tested on: Wistar rats, global brain ischemia; assay: Transient forebrain (global) ischemia (4VO), Fluoro-Jade C staining of CA1; format: in vivo, rat; conditions: 30 mg/kg i.p. from 30 min after onset of ischemia, 7 days reperfusion; untreated 180±10
Experimental: Male Wistar rats (270-300 g; Harlan) were subjected to transient focal ischemia for 90 min by producing right middle cerebral artery occlusion (MCAO) as described previously, followed by reperfusion for 3 days and MTA treatment (30 mg/kg, intraperitoneally –i.p.- twice daily) starting 30 min after the onset of ischemia (n = 5 in each experimental group). Cerebral blood flow was monitored transcranially with a laser Doppler flowmeter (Perimed) and the infarct volume was assessed by 2,3,5-triphenyltetrazolium chloride (TTC) staining. Transient forebrain ischemia was induced as described elsewhere, by occluding the vertebral and common carotid arteries (4VO) for 10 min, followed by reperfusion for 7 days and MTA treatment (as above) starting 30 min after the onset of ischemia (n = 5 in vehicle group; n = 6 in the […]). The effectiveness of the treatment was assessed by using fluoro-Jade C staining to measure the levels of degenerated neurons in the CA1 region of the hippocampal formation.
Fluoro-Jade C (Chemicon, Millipore) was used to visualize dying neurons in 10 µm frozen coronal sections pretreated for 15 min with 0.06% KMnO4. […] Cells were counted in the right and left hemispheres of each stained section, examining four sections from each experiment.

Substance: 5′-deoxy-5′-methylthioadenosine [MTA]
- mossy fiber sprouting (Timm staining) ([1]; MTA 30 mg/kg pre-SE or post-SE, 30 days after SE): No difference
- neurodegeneration and neuronal loss in hippocampal areas (NeuN immunoreactivity) ([1]; MTA 30 mg/kg/day before or after SE, early (3-5 days) and late (30 days) time points): reduced the neurodegeneration and neuronal loss
- neuronal loss in the CA3 and CA1 hippocampal areas (stereological counting of NeuN-immunoreactive cells) ([1]; MTA 30 mg/kg/day prior to SE, 30 days after SE): significant reductions
- Fluoro Jade C stained cells in the hippocampal CA1 region [2]: 110±20 cells/mm
